Laboratory results reported in publication PMC11901765, “Discovery of N-(2-Acetamidobenzo[d]thiazol-6-yl)-2-phenoxyacetamide Derivatives as Novel Potential BCR-ABL1 Inhibitors Through Structure-Based Virtual Screening” (Molecules, 2025).
Where two headings read alike, the source gives them in different places.

Experiments:
[1] = test system: Ba/F3 (BCR-ABL1) cells; assay: CCK-8 viability assay, Ba/F3 (BCR-ABL1) cells; format: cell-based; settings: for Ba/F3 (BCR-ABL1) Inhibition (%): measured at 10 μM; for Ba/F3 (BCR-ABL1) Inhibition (%) / GI50 / IC50: mean ± SD; for GI50: Mus musculus, BaF3, CCK8 kit; for IC50: Table 3
Protocol: (§1) Cell viability was assessed using the Cell Counting Kit-8 (CCK-8) assay. […] After 72 h of incubation, 10 μL of CCK-8 reagent was added to each well, and the plates were further incubated for 2–4 h. Absorbance was measured at 450 nm using a microplate reader. Dose-response curves were generated and analyzed using GraphPad Prism 8 (version 8.4.3.686).

[2] = test system: parental Ba/F3 cells; assay: CCK-8 viability assay, parental Ba/F3 cells; format: cell-based; settings: mean ± SD; for GI50: CCK8 kit; for IC50: Table 3
Protocol: as §1

[3] = test system: Ba/F3 (BCR-ABL^T315I) cells; assay: CCK-8 viability assay, Ba/F3 (BCR-ABL^T315I) cells; format: cell-based; settings: Table 3; mean ± SD
Protocol: as §1

[4] = test system: MV411; assay: CCK-8 viability assay, MV411 cells; format: cell-based
Protocol: as §1

[5] = test system: HL60; assay: CCK-8 viability assay, HL60 cells; format: cell-based
Protocol: as §1

[6] = test system: K562 cells; assay: CCK-8 viability assay, K562 cells; format: cell-based; settings: 72 h; read-out: GI50 (IC50) K562 cells
Protocol: Cell viability was assessed using the Cell Counting Kit-8 (CCK-8) assay. Cells were seeded in 96-well plates at a density of 10,000 cells per well in RPMI 1640 medium. Test compounds were prepared by serially diluting stock solutions 3-fold in DMSO to generate an eight-point concentration gradient (100 μM to 0.045 μM), followed by addition to the cultured cells. After 72 h of incubation, 10 μL of CCK-8 reagent was added to each well, and the plates were further incubated for 2–4 h. Absorbance was measured at 450 nm using a microplate reader. Dose-response curves were generated and analyzed using GraphPad Prism 8 (version 8.4.3.686).

[7] = test system: K562 cells; assay: Apoptosis assay (Annexin V/PI flow cytometry); settings: 10m 10 μM, asciminib 5 μM, 48 or 72 h
Protocol: Cell apoptosis was evaluated through Annexin V and propidium iodide (PI) dual staining using an Annexin V-FITC Apoptosis Detection Kit (Vazyme, #A211-02, Nanjing, China) following the manufacturer’s protocol.

[8] = test system: K562 cells; assay: Synergy study with asciminib (CCK-8, SynergyFinder 3.0, ZIP model); format: cell-based
Protocol: The drug combination effects were quantified as percentage inhibition of cell viability. The experimental data were analyzed using SynergyFinder 3.0, with a four-parameter logistic regression (LL4) model selected for curve fitting and data analysis. The Synergy Score based on the ZIP (Zero Interaction Potency) model is used to evaluate the synergistic effects of drug combinations.

[9] = test system: BCR-ABL-dependent signaling (p-ABL1, p-STAT5, p-CRKL) in K562 cells; assay: Western blot of BCR-ABL-dependent signaling; format: cell-based; settings: 3.3 and 10 μM, 1 h
Protocol: Western blot analysis was conducted following established protocols. K562 cells were treated with varying concentrations of the test compound for 60 min, followed by protein extraction using RIPA buffer. Protein quantification was performed using bicinchoninic acid assay, and 30–60 μg of protein samples were resolved by 10% sodium dodecyl sulfate-polyacrylamide gel electrophoresis before being transferred onto nitrocellulose membranes. Membranes were probed with primary antibodies overnight at 4 °C. Following incubation with horseradish peroxidase (HRP)-conjugated secondary antibodies (Thermo Scientific, Waltham, MA, USA), protein bands were detected using a chemiluminescent HRP substrate (Millipore Corporation, #WBKLS0500, Billerica, MA, USA) and imaged with a Syngene GeneGnome-XRQ-NPC imager (Synoptics, Britain). Quantitative analysis was performed by measuring band intensity using ImageJ (version 1.43) software. The following primary antibodies were used: c-Abl (ABclonal, #A0282, Woburn, MA, USA), phosphor-c-Abl (ABclonal, #AP0001), STAT5 (ABclonal, #A5029), phosphor-STAT5 (ABclonal, #AP0887), CRKL (ABclonal, #A11735), and phospho-CRKL (ABclonal, #AP0824).

[10] = Table 3, mean ± SD, read-out: IC50 MV411
[11] = Table 3, mean ± SD, read-out: IC50 HL60

N-(2-Acetamidobenzo[d]thiazol-6-yl)-2-(3-fluorophenoxy)acetamide [Compound 10h]
Ba/F3 (BCR-ABL1) Inhibition (%) [1]: 61 ± 5%

Cc1ccc(S(=O)(=O)Nc2nc3ccc(NC(=O)COc4ccccc4)cc3s2)cc1 [Compound A15]
GI50 [1]: 3.9 ± 0.5 µM | GI50 ([2]; Mus musculus, BaF3): 42.9 ± 10.4 µM

N-(2-Acetamidobenzo[d]thiazol-6-yl)-2-(2-fluorophenoxy)acetamide [Compound 10g]
Ba/F3 (BCR-ABL1) Inhibition (%) [1]: 65 ± 3%

N-(2-Acetamidobenzo[d]thiazol-6-yl)-2-(naphthalen-2-yloxy)acetamide [Compound 10f]
IC50 [1]: 2.2 ± 0.5 µM | Ba/F3 (BCR-ABL1) Inhibition (%) [1]: 88 ± 2% | IC50 [2]: > 100 µM | IC50 [3]: > 100 µM | IC50 [4, 10]: > 100 µM | IC50 [5, 11]: > 100 µM | IC50 [6]: 2.7 µM

N-(2-Acetamidobenzo[d]thiazol-6-yl)-2-(o-tolyloxy)acetamide [Compound 10s]
Ba/F3 (BCR-ABL1) Inhibition (%) [1]: 22 ± 2%

N-(2-Acetamidobenzo[d]thiazol-6-yl)-2-(m-tolyloxy)acetamide [Compound 10t]
Ba/F3 (BCR-ABL1) Inhibition (%) [1]: 28 ± 5%

O=C(Nc1ccc(OC(F)(F)Cl)cc1)c1cnc(N2CC[C@@H](O)C2)c(-c2cc[nH]n2)c1 [Asciminib, reference compound]
GI50 ([2]; Mus musculus, BaF3): > 100 µM | IC50 ([2]; Mus musculus, BaF3): > 100 µM | IC50 ([4]; Homo sapiens, MV4-11, read-out: IC50 MV411): > 100 µM | IC50 ([5]; Homo sapiens, HL-60, read-out: IC50 HL60): > 100 µM | apoptosis induction (in words) [7]: significantly induced apoptosis

N-(2-Acetamidobenzo[d]thiazol-6-yl)-2-(4-fluorophenoxy)acetamide [Compound 10i]
Ba/F3 (BCR-ABL1) Inhibition (%) [1]: 58 ± 2%

CCC(=O)Nc1nc2ccc(NC(=O)COc3ccc(Cl)cc3)cc2s1 [Compound A8]
inhibition of Ba/F3 (BCR-ABL1) cells (in words) ([1]; 10 μM): showed inhibition potency | GI50 [1]: 6.4 ± 1.6 µM | GI50 ([2]; Mus musculus, BaF3): > 100 µM

Cc1ccc(NC(=O)c2ccc(CN3CCN(C)CC3)cc2)cc1Nc1nccc(-c2cccnc2)n1 [Imatinib, imatinib, reference compound]
effect in combination with asciminib (in words) [8]: antagonistic effect

CS(=O)(=O)Nc1nc2ccc(NC(=O)COc3ccccc3)cc2s1 [Compound A14]
GI50 [1]: 1.2 ± 0.2 µM | GI50 ([2]; Mus musculus, BaF3): 37.6 ± 5.7 µM

N-(2-Acetamidobenzo[d]thiazol-6-yl)-2-phenoxyacetamide [Compound 10a]
Ba/F3 (BCR-ABL1) Inhibition (%) [1]: 52 ± 5%

N-(2-Acetamidobenzo[d]thiazol-6-yl)-2-(3-chlorophenoxy)acetamide [Compound 10k]
Ba/F3 (BCR-ABL1) Inhibition (%) [1]: 60 ± 6%

CCC(=O)Nc1nc2ccc(NC(=O)COc3ccccc3)cc2s1 [Compound A12]
GI50 [1]: 10.7 ± 2.6 µM | GI50 ([2]; Mus musculus, BaF3): > 100 µM

N-(2-Acetamidobenzo[d]thiazol-6-yl)-2-(2-chlorophenoxy)acetamide [Compound 10j]
Ba/F3 (BCR-ABL1) Inhibition (%) [1]: 68 ± 2%

O=C(COc1ccccc1)Nc1ccc2nc(NC(=O)c3ccccc3)sc2c1 [Compound A13]
GI50 [1]: 19.5 ± 4.7 µM | GI50 ([2]; Mus musculus, BaF3): > 100 µM

N-(2-Acetamidobenzo[d]thiazol-6-yl)-2-(4-chlorophenoxy)acetamide [Compound 10l]
Ba/F3 (BCR-ABL1) Inhibition (%) [1]: 71 ± 4%

N-(2-Acetamidobenzo[d]thiazol-6-yl)-2-(3,4-dichlorophenoxy)acetamide [Compound 10m]
IC50 [1]: 0.63 ± 0.1 µM | Ba/F3 (BCR-ABL1) Inhibition (%) [1]: 93 ± 5% | IC50 [2]: > 100 µM | IC50 [3]: 25.2 ± 1.1 µM | IC50 [4, 10]: > 100 µM | IC50 [5, 11]: 54.2 ± 5.5 µM | IC50 [6]: 0.98 µM | effect in combination with asciminib (in words) [8]: powerful synergistic activity | inhibition of BCR-ABL-dependent signaling pathway (in words) [9]: potently inhibited | apoptosis induction (in words) [7]: significantly induced apoptosis
